IC50 data for 27 compounds are collected here from patent US11180482B2, “Anilinopyrimidines as haematopoietic progenitor kinase 1 (HPK1) inhibitors” (Ariad Pharmaceuticals, Inc., priority 2016, dated 2021).

What is called pIC50 is the IC50 on a negative log10 scale, so that one unit is a factor of ten. Higher therefore signals a low IC50.

pIC50: −log10 of the molar value. A value given as a limit tells only on which side of the number the result lay.

The target of the experiment is Wild Type HPK1 (MAP4K1) Kinase (Homo sapiens (Human), UniProt Q92918). As to the kind of experiment: HPK1 Assay (Caliper EZ reader, fluorescein tagged peptide substrate). Format: biochemical. Conditions: ATP 500 micromolar, kinase 6 nM, pH 7.4. How it is done: The enzymatic activity of Wild Type HPK1 (MAP4K1) Kinase was measured in the presence or absence of an inhibitor compound of the present disclosure by preparation of a reaction mixture containing a fluorescein tagged peptide (2 micromolar final concentration), ATP (Adenosine Triphosphate, 500 micromolar final concentration) and Wild Type kinase (6 nM final concentration) in a buffer system comprising 50 mM HEPES (Buffer), 3 mM MgCl2, 5% w/v Trehalose, 0.01% Brij 35 (Detergent), 0.1% Pluronic F127 (Surfactant), 0.1 mM EDTA (Ethylenediaminetetraacetic acid), 0.1 mM EGTA (ethylene glycol-bis(β-aminoethyl ether)-N,N,N′,N′-tetraacetic acid) and 1 mM DTT (Dithiothreitol) and at a pH of 7.4. The reactions were quenched by the addition of EDTA to a final concentration of 25 mM. A Caliper EZ reader was used to measure the extent of substrate to product conversion.
The peptide substrate used in the HPK1 assay was designed based on the amino acid sequence surrounding serine residue 376 of SLP76-Lymphocyte cytosolic protein 2 (a known intracellular substrate of HPK1). This sequence SSFPQSAsLPPYFSQ was modified as follows for use in Caliper assays of HPK1: the serine residues on either side of serine 376 were replaced with alanine, three lysine residues were added at the […] and a fluorescein tag (FAM) was attached to the […] to produce the sequence, FAM-FPQAAsLPPYFAKKK.

Chain of Wild Type HPK1 (MAP4K1) Kinase (Q92918 whole entry, species assumed): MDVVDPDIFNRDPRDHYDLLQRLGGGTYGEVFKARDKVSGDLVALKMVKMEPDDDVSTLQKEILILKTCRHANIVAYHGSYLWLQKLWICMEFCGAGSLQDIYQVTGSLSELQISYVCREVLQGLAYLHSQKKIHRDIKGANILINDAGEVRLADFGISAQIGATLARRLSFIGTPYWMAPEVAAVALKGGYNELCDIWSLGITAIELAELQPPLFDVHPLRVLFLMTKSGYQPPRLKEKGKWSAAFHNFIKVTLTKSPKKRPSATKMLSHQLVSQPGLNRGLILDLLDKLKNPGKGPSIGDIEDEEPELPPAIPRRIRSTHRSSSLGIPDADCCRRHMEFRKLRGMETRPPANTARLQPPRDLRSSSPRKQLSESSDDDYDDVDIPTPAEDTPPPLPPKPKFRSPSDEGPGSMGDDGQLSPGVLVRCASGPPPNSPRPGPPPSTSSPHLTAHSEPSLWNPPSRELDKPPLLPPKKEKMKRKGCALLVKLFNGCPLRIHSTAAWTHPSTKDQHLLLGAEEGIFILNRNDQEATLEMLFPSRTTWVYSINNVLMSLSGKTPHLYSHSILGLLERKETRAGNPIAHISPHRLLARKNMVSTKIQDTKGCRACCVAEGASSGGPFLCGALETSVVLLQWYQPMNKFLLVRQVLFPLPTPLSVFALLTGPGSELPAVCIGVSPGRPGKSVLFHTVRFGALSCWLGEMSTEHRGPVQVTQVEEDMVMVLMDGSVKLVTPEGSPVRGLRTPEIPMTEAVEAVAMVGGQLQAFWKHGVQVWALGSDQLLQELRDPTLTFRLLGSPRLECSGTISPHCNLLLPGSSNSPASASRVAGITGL

`CCc1cc2c(cc1Nc1ncc(Cl)c(Nc3ccccc3P(C)(C)=O)n1)CN(C)CC2` [Example I-7, 5-chloro-N^4-(2-dimethylphosphorylphenyl)-N^2-(6-ethyl-2-methyl-3,4-dihydro-1H-isoquinolin-7-yl)pyrimidine-2,4-diamine] showed a pIC50 of 8.00 to 8.30. Compound `[2H]C1([2H])NCCc2cc(OC)c(Nc3ncc(Cl)c(Nc4ccccc4P(C)(C)=O)n3)cc21` [Example I-39, (2-((5-chloro-2-((6-methoxy-1,2,3,4-tetrahydroisoquinolin-7-yl-1,1-d2)amino)pyrimidin-4-yl)amino)phenyl)dimethyl-phosphine oxide] showed a pIC50 of over 8.30. Then `CN1CCc2cc(Cl)c(Nc3ncc(Cl)c(Nc4ccccc4P(C)(C)=O)n3)cc2C1` [Example I-6, 5-chloro-N^2-(6-chloro-2-methyl-3,4-dihydro-1H-isoquinolin-7-yl)-N^4-(2-dimethylphosphorylphenyl)pyrimidine-2,4-diamine], with over 8.30; and `COc1cc2c(cc1Nc1ncc(Cl)c(Nc3ccccc3P(C)(C)=O)n1)CCNC2` [Example I-38, (2-((5-chloro-2-((7-methoxy-1,2,3,4-tetrahydroisoquinolin-6-yl)amino)pyrimidin-4-yl)amino)phenyl)dimethylphosphine oxide], with over 8.30; and `CN1CCc2c(Br)cc(Nc3ncc(Cl)c(Nc4ccccc4P(C)(C)=O)n3)cc2C1` [Example I-24, (2-((2-((5-bromo-2-methyl-1,2,3,4-tetrahydroisoquinolin-7-yl)amino)-5-chloropyrimidin-4-yl)amino)phenyl)dimethylphosphine oxide], with over 8.30. With `COc1cc2c(cc1Nc1ncc(Cl)c(Nc3ccccc3S(=O)(=O)C(C)C)n1)CN(C)CC2` [II-1, 5-chloro-N^4-(2-(isopropylsulfonyl)phenyl)-N^2-(6-methoxy-2-methyl-1,2,3,4-tetrahydroisoquinolin-7-yl)pyrimidine-2,4-diamine], the negative-log IC50 (pIC50) was over 8.30. Compound `COc1cc2c(cc1Nc1ncc(Cl)c(Nc3ccccc3P(C)(C)=O)n1)CN(C1COC1)CC2` [Example I-42, (2-((5-Chloro-2-((6-methoxy-2-(oxetan-3-yl)-1,2,3,4-tetrahydroisoquinolin-7-yl)amino)pyrimidin-4-yl)amino)phenyl)dimethylphosphine oxide] had a pIC50 of 7.00 to 8.00.

On to `CCP(=O)(CC)c1ccccc1Nc1nc(Nc2cc3c(cc2Cl)CCN(C)C3)ncc1Cl` [Example I-20, (2-((5-chloro-2-((6-chloro-2-methyl-1,2,3,4-tetrahydroisoquinolin-7-yl)amino)pyrimidin-4-yl)amino)phenyl)diethylphosphine oxide], for which the pIC50 was over 8.30. `COc1cc2c(cc1Nc1ncc(Cl)c(Nc3ccccc3P(C)(C)=O)n1)C(=O)NCC2` [Example I-33, 7-((5-chloro-4-((2-(dimethylphosphoryl)phenyl)amino)pyrimidin-2-yl)amino)-6-methoxy-3,4-dihydroisoquinolin-1(2H)-one]: the negative logarithm of the IC50 (pIC50) is 5.00 to 7.00. With `COc1cc2c(cc1Nc1ncc(C(F)(F)F)c(Nc3ccccc3P(C)(C)=O)n1)CN(C)CC2` [Example I-27, (2-((2-((6-methoxy-2-methyl-1,2,3,4-tetrahydroisoquinolin-7-yl)amino)-5-(trifluoromethyl)pyrimidin-4-yl)amino)phenyl)dimethylphosphine oxide], the pIC50 was 8.00 to 8.30. On to `COc1c(Nc2ncc(Cl)c(Nc3ccccc3P(C)(C)=O)n2)cc2c(c1N)CC1CCCCN1C2` (stereo not drawn) [Example I-9, N^8-[5-chloro-4-(2-dimethylphosphorylanilino)pyrimidin-2-yl]-9-methoxy-2,3,4,6,11,11a-hexahydro-1H-benzo[b]quinolizine-8,10-diamine], for which the pIC50 was 7.00 to 8.00. In turn, `COc1cc2c(cc1Nc1ncc(-c3cnn(C)c3)c(Nc3ccccc3P(C)(C)=O)n1)CN(C)CC2` [Example I-47, (2-((2-((6-methoxy-2-methyl-1,2,3,4-tetrahydroisoquinolin-7-yl)amino)-5-(1-methyl-1H-pyrazol-4-yl)pyrimidin-4-yl)amino)phenyl)dimethylphosphine oxide] gave a pIC50 of 5.00 to 7.00. Turning to `COc1cc2c(cc1Nc1ncc(Cl)c(Nc3ccccc3P(C)(C)=O)n1)C(C)N(C)CC2` (stereo not drawn) [Example I-29, (2-((5-chloro-2-((6-methoxy-1,2-dimethyl-1,2,3,4-tetrahydroisoquinolin-7-yl)amino)pyrimidin-4-yl)amino)phenyl)dimethylphosphine oxide], the pIC50 was over 8.30. `COc1cc2c(cc1Nc1ncc(Cl)c(Nc3ccccc3P(C)(C)=O)n1)CN(C)C2` [Example I-1, (2-((5-Chloro-2-((6-methoxy-2-methylisoindolin-5-yl)amino)pyrimidin-4-yl)amino)phenyl)dimethylphosphine oxide] gave a pIC50 of 7.00 to 8.00. To `COc1cc2c(cc1Nc1ncc(Cl)c(Nc3ccccc3P(C)(C)=O)n1)CCN(C)CC2` [Example I-3, (2-((5-chloro-2-((8-methoxy-3-methyl-2,3,4,5-tetrahydro-1H-benzo[d]azepin-7-yl)amino)pyrimidin-4-yl)amino)phenyl)dimethylphosphine oxide] belongs 7.00 to 8.00.

In the case of `CCP(=O)(CC)c1ccccc1Nc1nc(Nc2cc3c(cc2OC)CCN(C)C3)ncc1Cl` [Example I-19, (2-((5-chloro-2-((6-methoxy-2-methyl-1,2,3,4-tetrahydroisoquinolin-7-yl)amino)pyrimidin-4-yl)amino)phenyl)diethylphosphine oxide], the pIC50 is over 8.30. For `C=Cc1cc2c(cc1Nc1ncc(Cl)c(Nc3ccccc3P(C)(C)=O)n1)CN(C)CC2` [Example I-8, 5-chloro-N^4-(2-dimethylphosphorylphenyl)-N^2-(2-methyl-6-vinyl-3,4-dihydro-1H-isoquinolin-7-yl)pyrimidine-2,4-diamine], the negative logarithm of the IC50 (pIC50) is 8.00 to 8.30. `COc1cc2c(cc1Nc1ncc(Cl)c(Nc3ccccc3P(C)(C)=O)n1)CNCC2(C)C` [Example I-40, (2-((5-chloro-2-((6-methoxy-4,4-dimethyl-1,2,3,4-tetrahydroisoquinolin-7-yl)amino)pyrimidin-4-yl)amino)phenyl)dimethylphosphine oxide]: the pIC50 is over 8.30. To `COc1cc2c(cc1Nc1ncc(Cl)c(Nc3ccccc3P(C)(C)=O)n1)CN(C(C)C)CC2` [Example I-11, (2-((5-chloro-2-((2-isopropyl-6-methoxy-1,2,3,4-tetrahydroisoquinolin-7-yl)amino)pyrimidin-4-yl)amino)phenyl)dimethylphosphine oxide] belongs over 8.30; to `[2H]C1([2H])c2cc(Nc3ncc(Cl)c(Nc4ccccc4P(C)(C)=O)n3)c(OC)cc2CCN1C(C)C` [Example I-43, (2-((5-chloro-2-((2-isopropyl-6-methoxy-1,2,3,4-tetrahydroiso-quinolin-7-yl-1,1-d2)amino)pyrimidin-4-yl)amino)phenyl)-dimethylphosphine oxide], over 8.30; to `CP(C)(=O)c1ccccc1Nc1nc(Nc2cc3c(cc2C(F)(F)F)CCNC3)ncc1Cl` [Example I-37, (2-((5-Chloro-2-((6-(trifluoromethyl)-1,2,3,4-tetrahydroisoquinolin-7-yl)amino)pyrimidin-4-yl)amino)phenyl)dimethylphosphine oxide], 7.00 to 8.00. Then `COc1cc2c(cc1Nc1nccc(Nc3ccccc3P(C)(C)=O)n1)CN(C)CC2` [Example I-25, (2-((2-((6-methoxy-2-methyl-1,2,3,4-tetrahydroisoquinolin-7-yl)amino)pyrimidin-4-yl)amino)phenyl)dimethylphosphine oxide], with 5.00 to 7.00; and `COc1cc2c(cc1Nc1ncc(Cl)c(Nc3ccccc3P(C)(C)=O)n1)CCN(C)C2` [Example I-18, (2-((5-chloro-2-((7-methoxy-2-methyl-1,2,3,4-tetrahydroisoquinolin-6-yl)amino)pyrimidin-4-yl)amino)phenyl)dimethylphosphine oxide], with over 8.30. Take `COc1cc2c(cc1Nc1ncc(Cl)c(Nc3ccccc3P(C)(C)=O)n1)[C@H](N(C)C)CC2` [Example I-14, (R)-(2-((5-chloro-2-((3-(dimethylamino)-6-methoxy-2,3-dihydro-1H-inden-5-yl)amino)pyrimidin-4-yl)amino)phenyl)dimethylphosphine oxide]: the pIC50 is 8.00 to 8.30.

For `C=Cc1cnc(Nc2cc3c(cc2OC)CCN(C)C3)nc1Nc1ccccc1P(C)(C)=O` [Example I-46, (2-((2-((6-Methoxy-2-methyl-1,2,3,4-tetrahydroisoquinolin-7-yl)amino)-5-vinylpyrimidin-4-yl)amino)phenyl)dimethylphosphine oxide], the pIC50 was over 8.30. With `COc1cc2c(cc1Nc1ncc(Cl)c(Nc3ccccc3P(C)(C)=O)n1)CN1CCCCC1C2` (stereo not drawn) [Example I-10, 5-chloro-N^4-(2-dimethylphosphorylphenyl)N^2-(9-methoxy-2,3,4,6,11,11a-hexahydro-1H-benzo[b]quinolizin-8-yl)pyrimidine-2,4-diamine], the negative logarithm of the IC50 (pIC50) is over 8.30. `COc1cc2c(cc1Nc1ncc(Cl)c(Nc3ccccc3P(C)(C)=O)n1)C(C)(C)N(C)CC2` [Example I-28, (2-((5-chloro-2-((6-methoxy-1,1,2-trimethyl-1,2,3,4-tetrahydroisoquinolin-7-yl)amino)pyrimidin-4-yl)amino)phenyl)dimethylphosphine oxide] had a negative logarithm of the IC50 (pIC50) of 7.00 to 8.00.
